The values below come from patent US8293529B2, “Method for inducing differentiation of pluripotent stem cells into cardiomyocytes” (Daiichi Sankyo Company, Limited, priority 2006, dated 2012).

Test [1] relates to mouse ES cells. In words: Appearance rate of EBs exhibiting spontaneous beating. It is filed as cell-based. How it is done: Culture for inducing differentiation of ES cells into cardiomyocytes or neurons was accomplished in a routine manner as follows. ES cells were suspended in LIF-free medium, and the resulting suspension was seeded at 500 cells/50 μL per well of a commercially available 96-well culture plate for spheroid formation (Sumilon Celltight Spheroid; Sumitomo Bakelite Co., Ltd., Japan).
In the early stage of differentiation in ES cells, transient elevations in expression of various Wnt genes were observed prior to the appearance of cardiomyocytes. Then, ES cells at this stage were treated with recombinant Wnt proteins to study the myocardial differentiation-inducing effect of the proteins. Induction of ES cell differentiation was accomplished in the same manner as used in Example 1, except that some of the experimental groups were cultured in medium containing a commercially available recombinant WNT-1 (Peprotech), Wnt-3a (R&D systems) or Wnt-5a (R&D systems) protein. Treatment of ES cells in medium supplemented with a recombinant protein of canonical Wnt such as WNT-1 is hereinafter referred to as “Wnt treatment.”
The above canonical Wnt protein treatment is known to inhibit the action of GSK3β within cells and thereby promote stabilization of β-catenin and its transcription activation ability. Then, further studies were performed to confirm that treatment with various drugs capable of promoting stabilization of β-catenin and its transcription activation ability produced a myocardial differentiation-inducing effect on ES cells, as in the case of Wnt treatment. As drugs capable of promoting stabilization of β-catenin and its transcription activation ability, the following five commercially available compounds were used: GSK3β inhibitors BIO (Calbiochem), GSK3β inhibitor VII (Calbiochem), cell-permeable GSK3β peptide inhibitor (L803-mts; Calbiochem) and SB216763 (Biomol), as well as a Wnt agonist (Calbiochem) that promotes the transcription activation ability of β-catenin without GSK3β inhibition. ES cells were induced to differentiate in the same manner as used in the above Examples, and cultured in medium containing the above compounds during the time period between 48 and 120 hours ([…]) after induction of differentiation, as in the case of recombinant Wnt proteins.

In test [2] the test system is cmES cells. Kind of test: Marker gene expression in EBs from cmES cells (RT-PCR). The settings on record: EBs at 10 days after induction; vs untreated group. Format: cell-based, common marmoset. How it is done:
The EBs thus prepared were collected periodically, and total RNA was prepared with an RNeasy mini kit (Qiagen). cDNA was then synthesized with reverse transcriptase and analyzed by PCR to detect expression of common marmoset Wnt-3 gene (cmWnt-3) and β-actin (cmβActin) serving as an endogenous control. The primers used for detection are as shown below.
Moreover, for analysis of expressed genes, EBs were collected at 10 days after induction of differentiation to detect expression of various marker genes in the same manner as used in Example 5. The primers used for detection of common marmoset Nestin, ANP, MLC-2a and MLC-2v transcripts (hereinafter referred to as cmNestin, cmANP, cmMLC-2a and cmMLC-2v, respectively) are as shown below.

Test [3] has as its system mouse ES cells. To be noted: added for 3 days after initiation of differentiation induction (Naito et al.); cited from earlier work.
The test system of test [4] is cmES cells. In words: Immunohistochemical staining of marker proteins in EBs from cmES cells. The settings on record: EBs at 16 days after induction of differentiation. Format: cell-based, common marmoset. How it is done: Subsequently, immunohistochemical staining was performed in the same manner as used in Example 2 to confirm that beating cells developed in EBs from the Wnt-treated groups were cardiomyocytes producing specific marker proteins. From EBs in the Wnt-treated groups (Wnt-3a, WNT-1) at 16 days after induction of differentiation, frozen sections were prepared and reacted with anti-sarcomeric myosin antibody, anti-GATA-4 antibody or anti-Nkx-2.5 antibody as a primary antibody. After color reaction, these sections were observed under an optical microscope.

Take Wnt-3a: in the test with mouse ES cells [1] (Wnt proteins added at 10 ng/mL to 50 ng/mL), the “occurrence of beating EBs” value was “very good occurrence of beating EBs”. Further, the “appearance rate of beating EBs” value with mouse ES cells [1] (recombinant protein added at 1 ng/mL to 100 ng/mL) is on record as “significantly higher than in the untreated group”. Besides, in the test with mouse ES cells [1] (similar studies by the applicant, added for 3 days after initiation of induction (Example 2)), the “promoting effect on differentiation” value is listed as “no significant promoting effect on differentiation”. Also, the “expression of cardiomyocyte marker genes cmANP, cmMLC-2a and cmMLC-2v” value with cmES cells [2] is listed as “significantly stronger expression”. In addition, in the test on mouse ES cells [3], the “effect on myocardial differentiation from ES cells” value is “promote myocardial differentiation from ES cells”. Further, the “cells positive for sarcomeric myosin, GATA-4 and Nkx-2.5” value with cmES cells [4] is “the great majority of EB-constituting cells were found to be positive”.
